Reference: US4459294A, “Phosphoric and thiophosphoric esters of 5(3)-hydroxypyrazoles exerting an insecticidal action” (priority 1977, dated 1984)

What was measured:
Pieris brassicae = test: Biological activity on Pieris brassicae (Lepitoptera), 5-day old larvae; format: in vivo; conditions: 0.1 permill.; 48 hours after treatment
Experimental: Biological activity on Pieris brassicae (Lepitoptera)
Cut cauliflower leaves were sprinkled with an aqueous dispersion of the products under examination. After drying, the leaves were infested with 5-day old larvae. The percentage death rate of the larvae (untreated leaves=0) was determined 48 hours after treatment.

Spodoptera littoralis = test: Biological activity on Spodoptera littoralis (Lepidoptera), 5-days old larvae; format: in vivo; conditions: 0.1 permill.; 48 hours after treatment
Experimental: Biological activity on Spodoptera littoralis (Lepidoptera)
Cut tobacco leaves were sprinkled with an aqueous dispersion of the products under examination. After drying, the leaves were infested with 5-days old larvae. The percentage mortality of the larvae was determined 48 hours after treatment (untreated leaves, mortality=0).

Culex pipiens larvae = test: Biological activity on Culex pipiens (diptera) larvae; format: in vivo; conditions: 24 hours after treatment, read-out: percentage of reduction of the infestation (percentage death rate), Culex larvae
Experimental: Biological activity on Culex pipiens (diptera) larvae
Into glasses containing an aqueous dispersion of the products under examination, were introduced third and fourth age mosquito larvae. The percentage death rate of the larvae (glasses containing pure water=0) was determined 24 hours after treatment.

Culex pipiens adults = test: Biological activity on Culex pipiens (Diptera): adults; format: in vivo; conditions: 0.2 g/m^2, 24 hours after beginning of treatment, read-out: percentage of reduction of the infestation (mortality percentage), Culex ad.
Experimental: Biological activity on Culex pipiens (Diptera): adults
Whatman n°1 paper rectangles were treated uniformly with an acetonic solution of the products under examination. After evaporation of the solvent, each treated paper rectangle was used to line the inside wall of a perspex cylinder (model OMS). The paper-lined perspex cylinder was then closed with a net after having introduced into it 2-3 days old adult females. After one hour from the start of the contact, the insects were transferred into a similar cylinder likewise lined with untreated paper, and were fed with a sugary solution.
The mortality percentage (untreated insects=0) was determined 24 hours after the beginning of the treatment.

Musca domestica = test: Biological activity on Musca domestica (Diptera), topical application; format: in vivo; conditions: 0.5 γ/ins, 24 hours after treatment
Experimental: Biological activity on Musca domestica (Diptera)
4-days old adults were treated, by topical application by microsyringe, with an acetonic solution of the products under examination.
The mortality percentage (insects treated with acetone only=0) was determined 24 hours after the treatment.

[1] = test system: Leptinatarsa decomlineata; test: Biological activity on Leptinatarsa decomlineata (Coledptera), 4-day old larvae; format: in vivo; conditions: 0.1 permill.; 48 hours after treatment
Experimental: Biological activity on Leptinatarsa decomlineata (Coledptera)
Small, pot-grown potato-plants were infested with 4-day old larvae, and then were sprinkled with an aqueous dispersion of the products under examination. The percentage death rate (untreated plants=0) was determined 48 hours after treatment.

Macrosiphum euphorbiae = test: Biological activity on Macrosiphum euphorbiae (aphides); format: in vivo; parameters: tested at 0.01 permill; conditions: 0.01 permill.; 24 hours after treatment
Experimental: Biological activity on Macrosiphum euphorbiae (aphides)
Small potato plants grown in pots were infested with adult female aphides and, after several hours, were sprinkled with an aqueous dispersion of the products under examination.
The percentage death rate was determined 24 hours after treatment (untreated plants=0).

Tetranychus urticae = test: Biological activity on Tetranychus urticae (Acari) adults; format: in vivo; conditions: 0.01 permill.; 24 hours after treatment
Experimental: Biological Activity on Tetranychus urticae (Acari) adults
Small bean leaf discs were infected with adult acari and were then sprinkled with an aqueous dispersion of the products under examination. The percentage of mortality was determined 24 hours after the treatment (untreated discs, mortality=0).

Meloidogyne incognita = test: Biological activity on Meloidogyne incognita (Nematoda); format: in vivo; conditions: 20 ppm; 21 days after transplanting
Experimental: Biological activity on Meloidogyne incognita (Nematoda)
Aliquot parts of a 1:1 mixture of field soil and sand, infested by Nematoda larvae and eggs, were treated by uniformly mixing same with an aqueous dispersion of the products under examination. The soil was then distributed into plastic pots, and after 5 days into each pot there were transplanted 5 tomato plants about 20 cm high. The survey of the results was carried out 21 days after the transplanting, by observing the roots of the plants extracted from the soil in order to ascertain the degree of infestation by counting the galls that have formed on them. The nematocide activity was expressed as a percentage of reduction of the infestation with respect to the witness plant (small plants transplanted into untreated soil, activity=0).

Blatta orientalis = test: Biological activity on Blatta orientalis (Ortoptera); format: in vivo; conditions: 0.1 g/m^2, 48 hours after start of treatment, read-out: percentage of reduction of the infestation (percentage mortality), Blatta
Experimental: Biological activity on Blatta orientalis (Ortoptera)
The bottom and side walls of glass beakers were treated uniformly with an acetonic solution of the products under examination. After evaporation of the solvent in each beaker, into the same were then introduced ten, 80-100 days old neanides, whereafter they were closed with a lid of metal netting. After 24 hours from the beginning of the treatment, the insects were transferred into untreated glass beakers, and suitably nourished. The percentage mortality (untreated insects=0) was determined 48 hours after the start of the treatment.

Toxicity by os on rats = conditions: rat, in vivo, po
[2] = test system: insects, acari and nematoda; test: Pesticidal activity against insects, acari and nematoda (general statements); format: in vivo
Experimental: The pesticidal activity, verified by the methods described below in Example 12, is recorded below in the following Table 3 in comparison with that of "Pyrazothion".

SMILES	percentage of reduction of the infestation (percentage death rate of larvae), Pieris B (Pieris brassicae) [%]	percentage of reduction of the infestation (percentage mortality of larvae), Spodoptera L (Spodoptera littoralis) [%]	mortality at 0.2 ppm (Culex pipiens larvae) [%]	mortality at 0.2 g/m2 (Culex pipiens adults) [%]	percentage of reduction of the infestation (mortality percentage), Musca d. (Musca domestica) [%]	percentage of reduction of the infestation (percentage death rate), Leptinot D. [1] [%]	percentage of reduction of the infestation (percentage death rate), Macrosiph. E. (Macrosiphum euphorbiae) [%]	percentage of reduction of the infestation (percentage of mortality), Tetran U. (Tetranychus urticae) [%]	percentage of reduction of the infestation, Meloidog. I. (Meloidogyne incognita) [%]	mortality at 0.1 g/m2 (Blatta orientalis) [%]	LD50 (Toxicity by os on rats) [mg/kg]	activity against Spodoptera, Culex, Musca, Leptinotarsa, Meloidogine incognita ([2]; Spodoptera, Culex, Musca, Leptinotarsa, Meloidogine incognita)	activity against insects, acari and nematoda ([2]; in vivo)
CCOP(=S)(OCC)Oc1cc(Cl)nn1C(C)C [Compound 5]	100	60	100	100	100	100	100	100	90	100	22	–	–
COP(=S)(OC)Oc1cc(Cl)nn1-c1ccccc1 [Compound 1, O,O-dimethyl-0-(1-phenyl-3-chloropyrazol-5-yl) thiophosphate]	100	100	100	100	100	100	90	60	80	100	400	–	–
CCOP(=S)(OCC)Oc1cc(Cl)nn1C [Compound 13]	100	100	100	100	100	100	99	100	100	100	25	–	–
CCOP(=S)(OCC)Oc1cc(C=C(Cl)Cl)nn1C [Compound 6]	100	100	100	76	100	100	100	100	95	100	175	–	–
CCOP(=S)(OC)Oc1cc(Cl)nn1-c1ccccc1 (stereo not drawn) [Compound 37]	100	100	100	100	100	100	48	0	47	100	320	–	–
CCOP(=S)(OCC)Oc1cc(C)[nH]n1 [Pyrazothion, diethyl-thiophosphoric ester of 3(5)-methyl-5(3)-hydroxypyrazole, reference compound]	70	0	0	0	0	0	60	90	0	20	36	ineffective	does not shown activity
COP(=S)(OC)Oc1cc(Cl)nn1C [Compound 14]	100	82	100	100	100	37	96	100	41	100	560	–	–
CCOP(=S)(OC)Oc1cc(Cl)nn1C (stereo not drawn) [Compound 23]	100	100	100	100	100	100	92	100	100	100	487	–	–
COP(=S)(OC)Oc1cc(Cl)nn1C(C)C [Compound 4]	–	80	100	100	100	100	94	80	–	100	1100	–	–
